Active and inactive are the calls of the source. The calls are words filed in the database; no cut-off is given here.
Assays:
[1] = Inhibition of rat recombinant FLAG-tagged PTGES expressed in baculovirus infected Hi-5 insect cells using prostaglandin H2 as substrate incubated for 20 mins followed by substrate addition and incubated for 60 sec by TR-FRET assay
[2] = target: T1, Prostaglandin E synthase (Mus musculus, UniProt Q9JM51); test: Inhibition of mouse recombinant FLAG-tagged PTGES expressed in baculovirus infected Hi-5 insect cells using prostaglandin H2 as substrate incubated for 20 mins followed by substrate addition and incubated for 60 sec by TR-FRET assay
T1 sequence (Q9JM51 whole entry): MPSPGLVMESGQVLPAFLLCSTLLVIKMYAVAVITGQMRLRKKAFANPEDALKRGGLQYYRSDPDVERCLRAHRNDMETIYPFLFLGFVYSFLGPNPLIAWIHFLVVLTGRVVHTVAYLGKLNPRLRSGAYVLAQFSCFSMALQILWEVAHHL

[3] = target: T2, Prostaglandin E synthase (Homo sapiens, UniProt O14684); test: Inhibition of human recombinant FLAG-tagged PTGES expressed in baculovirus infected Hi-5 insect cells using prostaglandin H2 as substrate preincubated for 20 mins followed by substrate addition and incubated for 60 sec by TR-FRET assay
T2 sequence (O14684 whole entry): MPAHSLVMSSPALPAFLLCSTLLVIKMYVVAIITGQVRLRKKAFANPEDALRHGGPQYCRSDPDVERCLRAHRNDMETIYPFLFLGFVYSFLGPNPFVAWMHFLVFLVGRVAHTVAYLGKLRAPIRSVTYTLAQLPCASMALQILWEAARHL

[4] = system: Mus musculus; test: Antinociceptive activity in C57BL/6 mouse model of complete Freund's adjuvant-induced inflammatory pain assessed as inhibition of PGE2 production at 100 mg/kg, po administered after 2 days of CFA induction and measured after 1 hr by ELISA; type: functional, organism-based
[5] = Selectivity ratio of IC50 for mouse recombinant FLAG-tagged PTGES to human recombinant FLAG-tagged PTGES expressed in baculovirus infected Hi-5 insect cells using prostaglandin H2 as substrate preincubated for 20 mins followed by substrate addition and incubated for 60 sec by TR-FRET assay
[6] = Apparent permeability across apical to basolateral side in human Caco2 cells measured at 2 uM incubated for 2 hrs by LC/MS/MS analysis; type: ADME, cell-based; conditions: Caco-2
[7] = Oral bioavailability in Wistar rat at 0.5 to 1 mg/kg measured upto 24 hrs by LC-MS/MS; type: ADME, organism-based; conditions: in vivo
[8] = system: Rattus norvegicus; test: Antihyperalgesia activity in Sprague-Dawley rat endometriosis model assessed as viscero-motor response at 75 mg/kg, po bid administered for 3 to 5 weeks of post surgery by EMG method; type: functional, organism-based
[9] = system: Rattus norvegicus; test: Antihyperalgesia activity in Sprague-Dawley rat endometriosis model assessed as decrease in proliferation of lesions by measuring expression of Ki67 at 75 mg/kg, po bid administered for 3 to 5 weeks of post surgery by RT-PCR analysis; type: functional, organism-based
[10] = Hepatic extraction ratio in Han Wistar rat liver microsomes at 1 uM measured upto 90 mins by LC-MS/MS; type: ADME, Microsome; conditions: read-out: ERH
[11] = Efflux ratio of apparent permeability from basolateral to apical over apical to basolateral side in human Caco2 cells at 2 uM incubated for 2 hrs by LC/MS/MS analysis; type: ADME, cell-based; conditions: Caco-2
[12] = Total blood clearance in Wistar rat blood at 0.5 to 1 mg/kg, […] 0.5 to 10 mg/kg, ig measured upto 24 hrs by LC-MS/MS; type: ADME, organism-based; conditions: whole blood
[13] = Volume of distribution at steady state in Wistar rat blood at 0.5 to 1 mg/kg, […] 0.5 to 10 mg/kg, ig measured upto 24 hrs by LC-MS/MS; type: ADME, organism-based; conditions: in vivo
[14] = Half life in Wistar rat blood at 0.5 to 1 mg/kg, […] 0.5 to 10 mg/kg, ig LC-MS/MS; type: ADME, organism-based; conditions: whole blood
[15] = system: Mus musculus; test: Antinociceptive activity in C57BL/6 mouse model of complete Freund's adjuvant-induced inflammatory pain assessed as reduction in pain-related behavior at 30 to 100 mg/kg, po administered after 2 days of CFA induction and measured after 1 hr by using Plexiglas chamber; type: functional, organism-based
[16] = system: Mus musculus; test: Antinociceptive activity in C57BL/6 mouse model of complete Freund's adjuvant-induced inflammatory pain assessed as inhibition of PGE2 production at 30 to 100 mg/kg, po administered after 2 days of CFA induction and measured after 1 hr by ELISA; type: functional, organism-based
[17] = Ratio of unbound drug level in CFA-induced mouse to IC50 for mouse recombinant FLAG-tagged PTGES inhibition; type: ADME; conditions: in vivo
[18] = system: Rattus norvegicus; test: Antihyperalgesia activity in Sprague-Dawley rat endometriosis model assessed as viscero-motor response at 75 mg/kg, po bid administered for 3 to 5 weeks of post surgery and measured after 1 week by EMG method; type: functional, organism-based

Q: With `Cc1c(NC(=O)[C@@H](c2ccc(-c3cncc(Cl)c3)cc2)C2CCCC2)cccc1[C@H](C)CC(=O)O` as the compound, how does the IC50 [1] read?
A: 0.895 µM

Q: What about the IC50 [2] of the same compound?
A: 0.339 µM

Q: For `O=C(O)CCc1cccc(NC(=O)C(c2ccc(-c3cncc(Cl)c3)cc2)C2CCCC2)c1OC(F)(F)F` (stereo not given), which IC50 [3] is on record?
A: > 20 µM

Q: For `CC(C)Cc1ccc(C(C)C(=O)O)cc1` (stereo not given), which Activity [4] is on record?
A: Active

Q: For `CC[C@@H](CC(=O)O)c1cccc(NC(=O)C(c2ccc(-c3cncc(CC(C)C)c3)cc2)C2CCCC2)c1C` (stereo not given in full), which IC50 [1] is on record?
A: 0.162 µM

Q: What about the IC50 [2] of the same compound?
A: 0.084 µM

Q: Which IC50 [3] does the source give for `Cc1c(CCC(=O)O)cccc1NC(=O)C(c1ccc(-c2cncc(Cl)c2)cc1)C1CCN(C)C1=O` (stereo not given) here?
A: > 20 µM

Q: Which results are given for `Cc1cncc(-c2ccc(C(C(=O)Nc3cccc(CCC(=O)O)c3C)C3CCCC3)cc2)c1` (stereo not given)?
A: IC50 [1]: 2.59 µM; IC50 [2]: 0.818 µM

Q: What does the source list for `Cc1c(NC(=O)[C@@H](c2ccc(-c3cncc(Cl)c3)cc2)C2CCCC2)cccc1[C@@H](C)CC(=O)O`?
A: IC50 [1]: 1.36 µM; IC50 [2]: 0.584 µM

Q: Which IC50 [3] does the source give for `Cc1c(CCC(=O)O)cccc1NC(=O)C(c1ccc(-c2ccncc2)cc1)C1CCCC1` (stereo not given) here?
A: 9.26 µM

Q: With `Cc1c(CCC(=O)O)cccc1C(=O)NC(c1ccc(-c2cncc(Cl)c2)cc1)C1CCCC1` (stereo not given) as the compound, how does the IC50 [3] read?
A: > 20 µM

Q: With `Cc1ccc(-c2ccc(C(C(=O)Nc3cccc(CCC(=O)O)c3C)C3CCCC3)cc2)cn1` (stereo not given) as the compound, how does the Ratio IC50 [5] read?
A: 5

Q: Which IC50 [3] does the source give for `Cc1c(CCC(=O)O)cccc1NC(=O)C(c1ccccc1)c1ccc(-c2cncc(Cl)c2)cc1` (stereo not given) here?
A: 4.49 µM

Q: For `Cc1c(CCC(=O)O)cccc1NC(=O)C(c1ccc(-c2cncc(CC(C)C)c2)cc1)C1CCCC1` (stereo not given), which IC50 [2] is on record?
A: 0.191 µM

Q: For `Cc1c(CCC(=O)O)cccc1NC(=O)C(c1cccc(-c2ccccc2)c1)C1CCCC1` (stereo not given), which IC50 [3] is on record?
A: 5.86 µM

Q: For `Cc1c(CCC(=O)O)cccc1NC(=O)C(c1cccc(-c2cccnc2)c1)C1CCCC1` (stereo not given), which IC50 [3] is on record?
A: > 20 µM

Q: For `Cc1ncccc1-c1ccc(C(C(=O)Nc2cccc(CCC(=O)O)c2C)C2CCCC2)cc1` (stereo not given), which IC50 [3] is on record?
A: > 20 µM

Q: With `Cc1c(CCC(=O)O)cccc1NC(=O)C(c1ccc(-c2cncc(Cl)c2)nc1)C1CCCC1` (stereo not given) as the compound, how does the IC50 [3] read?
A: 0.327 µM

Q: With `Cc1c(CCC(=O)O)cccc1NC(=O)C(c1ccc(-c2ccccn2)cc1)C1CCCC1` (stereo not given) as the compound, how does the IC50 [3] read?
A: > 20 µM

Q: Which Papp A→B at 2 h, 2 µM [6] does the source give for `Cc1c(CCC(=O)O)cccc1NC(=O)[C@@H](c1ccc(-c2cncc(Cl)c2)c(F)c1)C1CCCC1` here?
A: 5.9 ×10⁻⁶ cm/s

Q: And the bioavailability [7]?
A: 72%

Q: Which Papp A→B at 2 h, 2 µM [6] does the source give for `Cc1c(CCC(=O)O)cccc1NC(=O)[C@@H](c1ccc(-c2cncc(C(F)(F)F)c2)cc1)C1CCCC1` here?
A: 8 ×10⁻⁶ cm/s

Q: And the bioavailability [7]?
A: 73%

Q: For `O=C(O)CCc1ccc(NC(=O)C(c2ccc(-c3cncc(Cl)c3)cc2)C2CCCC2)cc1` (stereo not given), which IC50 [3] is on record?
A: > 20 µM

Q: With `Cc1c(NC(=O)[C@H](c2ccc(-c3cncc(Cl)c3)cc2)C2CCCC2)cccc1[C@H](C)CC(=O)O` as the compound, how does the IC50 [1] read?
A: 8.46 µM

Q: And the IC50 [2]?
A: 3.08 µM

Q: Which IC50 [3] does the source give for `Cc1c(CCC(=O)O)cccc1NC(=O)C(c1ccc(-c2cncc(Cl)c2)cn1)C1CCCC1` (stereo not given) here?
A: 2.33 µM

Q: With `Cc1c(CCC(=O)O)cccc1NC(=O)[C@@H](c1ccc(-c2cncc(Cl)c2)cc1)C1CCCC1` as the compound, how does the Activity [8] read?
A: Active

Q: And the Activity [9]?
A: Active

Q: What about the hepatic extraction ratio at […], 1 µM [10] of the same compound?
A: 0.02

Q: And the Papp A→B at 2 h, 2 µM [6]?
A: 6.9 ×10⁻⁶ cm/s

Q: And the efflux ratio at 2 h, 2 µM [11]?
A: 2.9

Q: What about the bioavailability [7] of the same compound?
A: 98%

Q: And the IC50 [1]?
A: 1.27 µM

Q: What about the IC50 [2] of the same compound?
A: 0.765 µM

Q: And the CL/F [12]?
A: 5 mL/min/kg

Q: What about the Vdss [13] of the same compound?
A: 0.9 L/kg

Q: And the half-life [14]?
A: 4.3 h

Q: And the Activity [15]?
A: Active

Q: And the Activity [16]?
A: Active

Q: And the Ratio [17]?
A: 3

Q: What about the Activity [18] of the same compound?
A: Active

Q: For `Cc1c(NC(=O)[C@@H](c2ccc(-c3cncc(Cl)c3)cc2)C2CCCC2)cccc1OCC(=O)O`, which Papp A→B at 2 h, 2 µM [6] is on record?
A: 0.22 ×10⁻⁶ cm/s

Q: And the bioavailability [7]?
A: 8%

Q: Which IC50 [3] does the source give for `Cc1c(CCC(=O)O)cccc1N(C)C(=O)C(c1ccc(-c2cncc(Cl)c2)cc1)C1CCCC1` (stereo not given) here?
A: > 20 µM

Q: For `Cc1c(NC(=O)[C@H](c2ccc(-c3cncc(Cl)c3)cc2)C2CCCC2)cccc1[C@@H](C)CC(=O)O`, which IC50 [1] is on record?
A: 17.7 µM

Q: And the IC50 [2]?
A: 12.6 µM

Q: Which IC50 [3] does the source give for `Cc1c(CCC(=O)O)cccc1NC(=O)C(c1ccc(-c2cccc(Cl)c2)cc1)C1CCCC1` (stereo not given) here?
A: 0.276 µM

Q: Which IC50 [3] does the source give for `Cc1c(CCc2nnn[nH]2)cccc1NC(=O)C(c1ccc(-c2cncc(Cl)c2)cc1)C1CCCC1` (stereo not given) here?
A: 0.152 µM

Q: With `CCc1cncc(-c2ccc(C(C(=O)Nc3cccc([C@@H](CC)CC(=O)O)c3C)C3CCCC3)cc2)c1` (stereo not given in full) as the compound, how does the hepatic extraction ratio at […], 1 µM [10] read?
A: 0.44

Q: What about the IC50 [1] of the same compound?
A: 0.19 µM

Q: And the IC50 [2]?
A: 0.203 µM

Q: Which Papp A→B at 2 h, 2 µM [6] does the source give for `Cc1c(CCC(=O)O)cccc1NC(=O)[C@@H](c1ccc(-c2cccnc2)cc1)C1CCCC1` here?
A: 3.6 ×10⁻⁶ cm/s

Reference: ChEMBL document CHEMBL4346755, “Discovery and optimization of pyridyl-cycloalkyl-carboxylic acids as inhibitors of microsomal prostaglandin E synthase-1 for the treatment of endometriosis” (Bioorg Med Chem Lett, 2019)
